Results: PMC5028780, “Receptor and transporter binding and activity profiles of albiflorin extracted from Radix paeoniae Alba” (Scientific Reports, 2016)

Experiments:
hSERT = molecular target: T1, hSERT (Homo sapiens, UniProt P31645); assay type: binding
T1 construct: expressed in transfected cells
Method: Membranes were prepared from HEK293 cells stably expressing hSERT, hNET, or hDAT as described previously. Briefly, [^3H]-citalopram (1 nM), [^3H]-nisoxetine (2 nM), or [^3H]-WIN35,428 (2 nM) was used to label human 5-HT, NE, or DA transporters, respectively.
(§1) All data for inhibition curves were analysed by nonlinear regression using Prism software (GraphPad Software Inc., San Diego, CA) to determine IC50 values. For the microdialysis experiments, two-way repeated-measures ANOVA followed by Tukey’s test was used to compare the percentage increase over baseline between groups, time and treatment as independent factors, and time as the repeated factor.

D1 = molecular target: T2, D1 (Homo sapiens, UniProt P21728); experiment: CNS receptor binding, dopamine D1; details: HEK293 cell line, [3H]-SCH23390(1)
T2 construct: expressed in transfected cells; host or cells: HEK293 cell line
T2 sequence (P21728 whole entry): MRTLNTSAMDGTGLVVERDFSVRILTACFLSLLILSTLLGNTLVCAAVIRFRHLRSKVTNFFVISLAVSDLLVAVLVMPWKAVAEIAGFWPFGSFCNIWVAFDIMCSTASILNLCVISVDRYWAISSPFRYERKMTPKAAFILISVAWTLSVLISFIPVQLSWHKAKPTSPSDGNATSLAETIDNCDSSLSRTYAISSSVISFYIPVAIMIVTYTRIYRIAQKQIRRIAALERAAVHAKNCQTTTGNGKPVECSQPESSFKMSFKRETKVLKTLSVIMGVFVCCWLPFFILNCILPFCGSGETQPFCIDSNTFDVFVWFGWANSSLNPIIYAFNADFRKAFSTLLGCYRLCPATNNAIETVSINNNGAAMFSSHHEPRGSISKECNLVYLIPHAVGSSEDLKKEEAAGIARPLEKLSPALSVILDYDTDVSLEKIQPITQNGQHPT
Method: (§2) Albiflorin (10 μM) was tested for numerous other potential binding targets by using standard receptor binding procedures. The tested targets included the following receptors: D1, D2, D3, D4, D5, 5-HT1A, 5-HT1B, 5-HT1D, 5-HT2a, 5-HT2C, 5-HT3, 5-HT5A, 5-HT6, 5-HT7, α1A, α1B, α2A, β1, M1, M2, M3, M4, M5, μ, κ, δ, A1, A2A, H1, H2, H3, H4.

κ = κ (Homo sapiens, UniProt P41145); experiment: CNS receptor binding, opioid κ; details: CHO cell line, [3H]-dipnorphine(1)
Chain of κ (P41145 whole entry): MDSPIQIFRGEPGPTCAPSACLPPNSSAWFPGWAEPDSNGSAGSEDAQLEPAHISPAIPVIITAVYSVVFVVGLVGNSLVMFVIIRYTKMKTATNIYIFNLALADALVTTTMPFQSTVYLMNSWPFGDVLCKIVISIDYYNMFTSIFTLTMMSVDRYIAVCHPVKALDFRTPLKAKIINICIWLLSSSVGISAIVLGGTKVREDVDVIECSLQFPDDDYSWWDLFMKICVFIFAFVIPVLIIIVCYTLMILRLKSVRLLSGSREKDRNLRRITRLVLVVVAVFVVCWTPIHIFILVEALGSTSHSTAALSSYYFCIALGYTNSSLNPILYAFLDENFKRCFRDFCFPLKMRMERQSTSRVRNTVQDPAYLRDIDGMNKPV
Method: as §2

H1 = H1 (Homo sapiens, UniProt P35367); experiment: CNS receptor binding, histamine H1; details: CHO cell line, [3H]-pyrilamine(2)
Chain of H1 (P35367 whole entry): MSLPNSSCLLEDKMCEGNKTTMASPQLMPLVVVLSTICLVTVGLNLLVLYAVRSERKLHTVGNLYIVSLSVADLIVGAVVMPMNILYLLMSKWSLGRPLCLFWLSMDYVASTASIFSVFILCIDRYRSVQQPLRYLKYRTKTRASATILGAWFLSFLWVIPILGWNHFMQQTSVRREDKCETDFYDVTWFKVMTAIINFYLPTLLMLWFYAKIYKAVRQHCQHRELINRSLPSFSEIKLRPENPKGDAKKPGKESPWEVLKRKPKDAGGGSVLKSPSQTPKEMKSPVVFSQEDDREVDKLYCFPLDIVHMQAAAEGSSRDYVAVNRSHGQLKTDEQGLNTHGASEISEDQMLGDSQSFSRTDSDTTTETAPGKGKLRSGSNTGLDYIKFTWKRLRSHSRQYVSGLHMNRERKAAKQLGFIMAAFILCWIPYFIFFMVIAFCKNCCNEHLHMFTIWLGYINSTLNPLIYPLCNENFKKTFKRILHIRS
Method: as §2

hypothalamic 5-HT levels = experiment: In vivo microdialysis, extracellular 5-HT; parameters: species or system rats
Method: (§3) The effect of albiflorin on extracellular monoamine levels in […] was determined using methods previously described. Microdialysis probes (CMA Microdialysis) with an active membrane surface of 2 mm were perfused with artificial cerebrospinal fluid (125 mM NaCl, 3 mM KCl, 0.75 mM MgSO4 and 1.2 mM CaCl2, pH 7.4) in situ for at least 18 h before experimentation. The microdialysis probe was then implanted via the guide cannula into the hypothalamus and perfused with artificial cerebral spinal fluid at a flow rate of 1 μL/min. A 3-h stabilisation period was allowed after probe implantation, and dialysate sampling was conducted according to previously described methods. […] All subsequent values were expressed as a percentage of the mean preinjection value (i.e., percentage of baseline). […] For a minimum of 3 h after albiflorin administration, dialysis samples were collected every 20 min and analysed to determine the levels of NE, 5-HT and DA. […] A 20-μL sample from the hypothalamus was analysed for 5-HT, NE and DA content using methods described previously. […] External standard curves were used to quantify the amounts of NE, 5-HT and DA in each sample, which was calculated using the area under the curve.
(§4) All data for inhibition curves were analysed by nonlinear regression using Prism software (GraphPad Software Inc., San Diego, CA) to determine IC50 values. […]

H3 = H3 (Homo sapiens, UniProt Q9Y5N1); experiment: CNS receptor binding, histamine H3; details: CHO cell line, [3H]-hestamine(1)
Chain of H3 (Q9Y5N1 whole entry): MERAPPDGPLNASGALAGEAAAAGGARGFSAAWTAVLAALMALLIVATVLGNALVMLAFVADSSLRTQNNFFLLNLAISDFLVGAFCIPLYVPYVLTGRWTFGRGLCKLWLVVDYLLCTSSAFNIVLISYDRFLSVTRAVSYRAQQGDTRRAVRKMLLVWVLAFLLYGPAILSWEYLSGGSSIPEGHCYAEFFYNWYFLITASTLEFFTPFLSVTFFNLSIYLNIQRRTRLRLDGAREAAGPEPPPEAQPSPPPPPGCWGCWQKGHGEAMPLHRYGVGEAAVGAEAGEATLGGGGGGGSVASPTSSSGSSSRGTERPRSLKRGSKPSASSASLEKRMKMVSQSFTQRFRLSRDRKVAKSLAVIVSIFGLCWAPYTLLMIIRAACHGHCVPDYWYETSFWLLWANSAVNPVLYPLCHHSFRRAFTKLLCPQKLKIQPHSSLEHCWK
Method: as §2

rat SERT = molecular target: T3, rat SERT (Rattus norvegicus, UniProt P31652); experiment: Rat monoamine transporter binding assay, SERT; details: [3H]-citalopram, Cerebral cortex
T3 construct: from tissue; host or cells: Sprague-Dawley rat cerebral cortex membranes
Method: Male Sprague–Dawley rats were killed by cervical dislocation, and their brains were rapidly removed and then dissected on ice. The cerebral cortex, hypothalamus and striatum were homogenised in 4 mL of assay buffer (50 mM Tris–HCl buffer, pH 7.4.) and centrifuged at 40,000× g for 10 min at 4 °C. The pellets were centrifuged twice at 20,000× g and then resuspended in 4 mL of assay buffer. […] Bio-Rad protein assay reagents (1:5 ratio) were used to analyse the protein concentration of the synaptosomal suspension.
as §1

hypothalamic NE levels = experiment: In vivo microdialysis, extracellular NE; parameters: species or system rats
Method: as §3, §4

5-HT2a = 5-HT2a (Homo sapiens, UniProt P28223); experiment: CNS receptor binding, 5-HT2a; details: HEK293 cell line, [3H]-ketanserin(1)
Chain of 5-HT2a (P28223 whole entry): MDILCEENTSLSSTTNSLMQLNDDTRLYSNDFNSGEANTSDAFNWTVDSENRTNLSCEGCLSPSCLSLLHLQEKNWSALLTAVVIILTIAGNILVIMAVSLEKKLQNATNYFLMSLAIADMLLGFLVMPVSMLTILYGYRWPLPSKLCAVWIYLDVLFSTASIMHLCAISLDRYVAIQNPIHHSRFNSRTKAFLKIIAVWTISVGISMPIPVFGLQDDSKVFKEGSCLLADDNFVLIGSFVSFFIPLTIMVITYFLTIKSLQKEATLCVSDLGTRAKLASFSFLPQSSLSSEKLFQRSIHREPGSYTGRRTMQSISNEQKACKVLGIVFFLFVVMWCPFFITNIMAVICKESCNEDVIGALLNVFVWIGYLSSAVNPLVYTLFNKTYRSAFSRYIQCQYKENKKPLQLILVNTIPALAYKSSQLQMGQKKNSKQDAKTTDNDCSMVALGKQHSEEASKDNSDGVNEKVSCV
Method: as §2

A2A = A2A (Homo sapiens, UniProt P29274); experiment: CNS receptor binding, adenosine A2A; details: HEK293 cell line, [3H]-CGS21680(10), read-out: IC50 values for albiflorin
Chain of A2A (P29274 whole entry): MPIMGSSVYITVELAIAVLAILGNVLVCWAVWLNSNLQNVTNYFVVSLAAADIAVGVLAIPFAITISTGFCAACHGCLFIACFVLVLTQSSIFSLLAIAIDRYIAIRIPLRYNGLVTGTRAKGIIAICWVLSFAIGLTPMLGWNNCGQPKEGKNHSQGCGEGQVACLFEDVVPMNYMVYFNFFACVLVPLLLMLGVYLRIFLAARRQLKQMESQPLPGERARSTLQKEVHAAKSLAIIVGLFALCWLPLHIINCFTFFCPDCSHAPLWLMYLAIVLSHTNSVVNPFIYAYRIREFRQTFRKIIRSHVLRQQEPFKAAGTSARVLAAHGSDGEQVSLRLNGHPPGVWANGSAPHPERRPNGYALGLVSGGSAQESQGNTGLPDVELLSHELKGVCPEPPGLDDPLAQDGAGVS
Method: as §2

α1B = α1B (Homo sapiens, UniProt P35368); experiment: CNS receptor binding, NE receptor α1B; details: HEK293 cell line, [3H]-parzosin(1)
Chain of α1B (P35368 whole entry): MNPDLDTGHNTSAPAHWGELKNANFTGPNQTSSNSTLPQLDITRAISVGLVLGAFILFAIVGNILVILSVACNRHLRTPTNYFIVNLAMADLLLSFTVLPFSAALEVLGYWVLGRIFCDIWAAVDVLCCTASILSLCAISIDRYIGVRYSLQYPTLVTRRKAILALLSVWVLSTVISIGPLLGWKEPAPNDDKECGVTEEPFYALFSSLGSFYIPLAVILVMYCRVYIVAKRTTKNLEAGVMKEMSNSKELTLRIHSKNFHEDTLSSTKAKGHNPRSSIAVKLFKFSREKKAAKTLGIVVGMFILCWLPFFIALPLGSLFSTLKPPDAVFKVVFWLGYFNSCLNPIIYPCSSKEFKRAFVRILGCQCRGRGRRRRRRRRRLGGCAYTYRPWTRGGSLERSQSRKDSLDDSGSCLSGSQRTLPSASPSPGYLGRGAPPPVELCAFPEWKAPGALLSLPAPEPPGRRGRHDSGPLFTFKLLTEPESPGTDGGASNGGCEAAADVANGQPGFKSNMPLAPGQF
Method: as §2

A1 = A1 (Homo sapiens, UniProt P30542); experiment: CNS receptor binding, adenosine A1; details: CHO cell line, [3H]-DPCPX(1)
Chain of A1 (P30542 whole entry): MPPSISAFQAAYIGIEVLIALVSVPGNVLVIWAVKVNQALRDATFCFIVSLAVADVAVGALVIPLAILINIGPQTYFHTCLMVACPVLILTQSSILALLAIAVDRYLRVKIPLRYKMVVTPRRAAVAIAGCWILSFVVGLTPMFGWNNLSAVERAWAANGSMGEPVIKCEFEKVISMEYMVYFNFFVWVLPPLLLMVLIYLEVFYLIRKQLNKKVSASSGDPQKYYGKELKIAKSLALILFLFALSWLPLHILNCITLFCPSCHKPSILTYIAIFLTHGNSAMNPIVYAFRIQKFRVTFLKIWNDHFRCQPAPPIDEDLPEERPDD
Method: as §2

5-HT6 = 5-HT6 (Homo sapiens, UniProt P50406); experiment: CNS receptor binding, 5-HT6; details: HEK293 cell line, [3H]-LSD(1)
Chain of 5-HT6 (P50406 whole entry): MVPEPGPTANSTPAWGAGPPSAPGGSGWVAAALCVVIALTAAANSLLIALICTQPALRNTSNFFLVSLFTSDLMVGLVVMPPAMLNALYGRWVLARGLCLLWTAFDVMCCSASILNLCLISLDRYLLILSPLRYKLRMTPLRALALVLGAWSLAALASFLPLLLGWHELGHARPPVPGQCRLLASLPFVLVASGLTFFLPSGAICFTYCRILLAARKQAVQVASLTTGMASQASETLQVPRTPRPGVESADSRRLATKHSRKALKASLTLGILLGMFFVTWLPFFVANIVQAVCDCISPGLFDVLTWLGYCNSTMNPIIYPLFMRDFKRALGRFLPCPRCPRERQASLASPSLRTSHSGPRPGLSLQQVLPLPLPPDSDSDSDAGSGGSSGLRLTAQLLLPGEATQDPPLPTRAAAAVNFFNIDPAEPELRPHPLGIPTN
Method: as §2

[1] = read-out: IC50 values for albiflorin

T1 sequence (P31645 whole entry): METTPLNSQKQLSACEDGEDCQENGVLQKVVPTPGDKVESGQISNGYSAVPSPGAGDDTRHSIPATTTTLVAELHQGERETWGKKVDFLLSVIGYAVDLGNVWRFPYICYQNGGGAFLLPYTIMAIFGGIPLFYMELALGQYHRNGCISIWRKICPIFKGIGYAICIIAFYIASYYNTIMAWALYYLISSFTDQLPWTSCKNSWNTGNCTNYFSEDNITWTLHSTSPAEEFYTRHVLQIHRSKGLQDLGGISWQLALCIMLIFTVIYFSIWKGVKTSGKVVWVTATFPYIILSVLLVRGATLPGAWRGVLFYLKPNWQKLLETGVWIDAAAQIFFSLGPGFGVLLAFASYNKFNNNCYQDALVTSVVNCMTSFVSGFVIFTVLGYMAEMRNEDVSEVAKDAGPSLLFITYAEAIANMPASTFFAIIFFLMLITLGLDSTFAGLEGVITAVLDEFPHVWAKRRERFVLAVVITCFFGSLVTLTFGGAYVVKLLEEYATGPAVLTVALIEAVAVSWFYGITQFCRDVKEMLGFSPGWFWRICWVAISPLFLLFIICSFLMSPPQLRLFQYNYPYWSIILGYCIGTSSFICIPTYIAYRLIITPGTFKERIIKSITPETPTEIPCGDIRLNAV

## C[C@]12C[C@@H](O)[C@@H]3C[C@@]1(O[C@@H]1O[C@H](CO)[C@@H](O)[C@H](O)[C@H]1O)[C@@]3(COC(=O)c1ccccc1)C(=O)O2 [albiflorin, Albiflorin]
hSERT; Human, [3H]-citalopram, HEK293 cell line, read-out: Ki values, SERT binding
  Ki: 0.00645 ± 0.00048 µM
hSERT; albiflorin vs fluoxetine
  affinity relative to fluoxetine in human SERT binding assay: 17 fold
D1
  % Inhibition of binding at 10 μM albiflorin: 54.20%
D1; [1]
  IC50: 2.99 ± 0.166 µM
κ
  % Inhibition of binding at 10 μM albiflorin: 32.33%
κ; [1]
  IC50: > 10 µM
H1
  % Inhibition of binding at 10 μM albiflorin: 6.33%
H1; [1]
  IC50: > 10 µM
Hypothalamic 5-HT levels; acute oral administration, 3.5, 7.0, 14.0 mg/kg, freely moving rats, vs vehicle
  effect on hypothalamic 5-HT levels: significant increase
Hypothalamic 5-HT levels; oral, rats, microdialysis
  time of peak 5-HT increase post administration: 1 h
H3
  % Inhibition of binding at 10 μM albiflorin: 12.33%
H3; [1]
  IC50: > 10 µM
Rat SERT
  Ki: 0.00525 ± 0.00017 µM
Hypothalamic NE levels; acute oral administration, 3.5, 7.0, 14.0 mg/kg, freely moving rats
  effect on hypothalamic NE levels: dose- and time-dependent increase
Hypothalamic NE levels; oral, rats, microdialysis
  time of peak NE increase after administration: 1 h
5-HT2a
  % Inhibition of binding at 10 μM albiflorin: 55.36%
5-HT2a; [1]
  IC50: 4 ± 0.113 µM
A2A
  IC50: > 10 µM
α1B
  % Inhibition of binding at 10 μM albiflorin: 12.33%
α1B; [1]
  IC50: > 10 µM
A1
  % Inhibition of binding at 10 μM albiflorin: 21.23%
A1; [1]
  IC50: > 10 µM
5-HT6
  % Inhibition of binding at 10 μM albiflorin: 22.36%
5-HT6; [1]
  IC50: > 10 µM
